Reference: patent publication US20160009727A1, “SA[…] PP2C INHIBITORS FOR CANCER TREATMENT” (Lixte Biotechnology, Inc., priority 2013, published 2016)
Like-named read-outs stand apart in the source and are kept apart here.

Tests used:
[1] = system: A549 (lung carcinoma); assay: A549 WST assay (cell growth / cell viability); assay type: cell-based, human; settings: for effect on cell growth and cell viability of A549: A549 in vitro, result in words; for IC50: Homo sapiens
[2] = system: U87MG (glioblastoma); assay: U-87 MG WST assay (cell growth / cell viability); assay type: cell-based, human; settings: for IC50: Homo sapiens; for effect on cell growth and cell viability of U87MG: U87MG in vitro, result in words
[3] = listed as N-ethyl derivative of sanguinarine
[4] = A549 (lung carcinoma), summary, FIG. 1 / Discussion, read-out: IC50, inhibition of growth in vitro of A549
[5] = first A549 WST assay, FIG. 2, read-out: IC50, first A549 WST assay
[6] = second A549 WST assay, FIG. 3, read-out: IC50, second A549 WST assay
[7] = U-87 MG, U87MG (glioblastoma), summary, FIG. 1 / Discussion, read-out: IC50, inhibition of growth in vitro of U87MG
[8] = first U-87 MG WST assay, FIG. 4, read-out: IC50, first U-87 MG WST assay
[9] = second U-87 MG WST assay, FIG. 5, read-out: IC50, second U-87 MG WST assay

Row | SMILES | effect on cell growth and cell viability of A549 [1] | effect on cell growth and cell viability of A549 [1, 3] | IC50 [1, 4] | IC50 [1, 5] | IC50 [1, 6] | IC50 [2, 7] | IC50 [2, 8] | IC50 [2, 9] | effect on cell growth and cell viability of U87MG [2] | effect on cell growth and cell viability of U87MG [2, 3] | melting point
1 | CC[n+]1cc2c3c(ccc2c2ccc4cc5c(cc4c21)OCO5)OCO3.[Cl-] [Compound 17, N-Ethyl Derivative of Sanguinarine] | inhibits cell growth and reduces cell viability | inhibited cell growth | ~1600 nM | ~1600 nM | ~1600 nM | ~3300 nM | ~3300 nM | ~3300 nM | inhibits cell growth and reduces cell viability | inhibited cell growth | 258 to 259 °C
2 | CC[C@@]1(O)C(=O)OCc2c1cc1n(c2=O)Cc2cc3c(CN(C)C)c(O)ccc3nc2-1 [Topotecan, reference compound] |  |  | 200 nM | ~200 nM | ~200 nM | 300 nM | ~300 nM | ~300 nM |  |  | 
3 | c1c2c(cc3c1OCO3)-c1ncc3c4c(ccc3c1CC2)OCO4 [Compound 14, 11,12-Dihydro-2,3,7,8-bismethylenedioxybenzo[c]phenanthridine] |  |  | > 10000 nM | > 10000 nM | > 10000 nM | > 10000 nM | > 10000 nM | > 10000 nM |  |  | 246 to 247 °C
4 | C[n+]1cc2c3c(ccc2c2ccc4cc5c(cc4c21)OCO5)OCO3 [sanguinarine, 13-methyl-[1,3]benzodioxolo[5,6-c]-1,3-dioxolo[4,5-i]phenanthridinium, reference compound] |  |  | 800 nM | 800 nM | 800 nM | 2000 nM | 2000 nM | 2000 nM |  |  | 
5 | c1cc2c(cnc3c4cc5c(cc4ccc23)OCO5)c2c1OCO2 [Compound 15, 2,3,7,8-bismethylene-dioxybenzo[c]-phenanthridine] |  |  | > 10000 nM | > 10000 nM | > 10000 nM | > 10000 nM | > 10000 nM | > 10000 nM |  |  | 270 to 272 °C
